Data reported in patent US9458085B2, “Formulations” (priority 2010, dated 2016).
Where a name gives a salt, the structure may show the parent alone. Read-outs that look alike come from different tables or passages of the source.

Experiments:
[1] = Water solubility of solvents at 25° C. (saturated solution, chromatographic analysis); assay type: physicochemical
Protocol: Typically, solvents which have aqueous solubilities of about (or at least) 0.1% w/w [at the relevant temperature] can dissolve appreciably in agrochemical spray tanks under normal dilution conditions [for example, temperatures of from just above freezing to 35° C.]. […] Solvents such as acetophenone are normally formulated with an oil of much lower water solubility. […] Table 2 provides water solubilities for a number of solvents at 25° C. Saturated solutions of each solvent in deionised water were prepared by leaving excess solvent in contact with water for a period of at least two weeks. After this time a sample of the water was analysed chromatographically to determine the concentration of solvent present.

[2] = system: Alopecurus Myosuroides (ALOMY); experiment: Glass house adjuvant test with pinoxaden, weed kill; assay type: in vivo; settings: pinoxaden 7.5 g/ha + adjuvant 0.2% by volume in spray-tank, mean (standard deviation), 3 replicates
Protocol: (§1) The weed species Setaria Viridis (SETVI), Lolium Perenne (LOLPE), Avena Fatua (AVEFA) and Alopecurus Myosuroides (ALOMY) were grown under glass house conditions and sprayed with the herbicide pinoxaden at a rate of 7.5 grams of pesticide per hectare. Weeds were treated with pinoxaden in the absence of (E)-but-2-enedioic acid dibutyl ester (as a control) and also with (E)-but-2-enedioic acid dibutyl ester added to the spray-tank at a concentration of 0.2% by volume. After both 14 and 21 days the efficacy of the herbicide was assessed based on the percentage of the weeds that had been killed. Three replicates were used in all cases. The average percentage of weeds killed is quoted in Table 5 for each weed species either with the adjuvant or without (control). Results have been averaged across three replicates. The standard deviation for each result is shown in brackets after the result.

[3] = system: Avena Fatua (AVEFA); experiment: as above; assay type: in vivo; settings: pinoxaden 7.5 g/ha + adjuvant 0.2% by volume in spray-tank, mean (standard deviation), 3 replicates
Protocol: as §1

[4] = system: Lolium Perenne (LOLPE); experiment: as above; assay type: in vivo; settings: pinoxaden 7.5 g/ha + adjuvant 0.2% by volume in spray-tank, mean (standard deviation), 3 replicates
Protocol: as §1

[5] = system: Setaria Viridis (SETVI); experiment: as above; assay type: in vivo; settings: pinoxaden 7.5 g/ha + adjuvant 0.2% by volume in spray-tank, mean (standard deviation), 3 replicates
Protocol: as §1

[6] = system: Amaranthus Tuberculatus (AMATU); experiment: Glass house adjuvant test with mesotrione, weed kill; assay type: in vivo; settings: mesotrione 45 g/ha + adjuvant 0.2% v/v in spray-tank, mean (standard deviation), 3 replicates
Protocol: The weed species Polygonum Convolvulus, Digitaria Sanguinalis, Brachiaria Decumbens and Amaranthus Tuberculatus were grown under glass house conditions and sprayed with the herbicide mesotrione at rate of 45 grams of pesticide per hectare. Weeds were treated with the mesotrione in the absence of (E)-but-2-enedioic acid dibutyl ester (as a control) and also with (E)-but-2-enedioic acid dibutyl ester added to the spray-tank at a concentration of 0.2% v/v. After 14 and 21 days the efficacy of the herbicide was assessed based on the percentage of the weeds that had been killed. Three replicates were used in all cases. The performance of the solvent was assessed by averaging the three replicates at each time period and for each weed. The standard deviation for each result is shown in brackets after the average percentage weed kill.

[7] = system: Brachiaria Decumbens (BRADE); experiment: as above; assay type: in vivo; settings: mesotrione 45 g/ha + adjuvant 0.2% v/v in spray-tank, mean (standard deviation), 3 replicates
[8] = system: Digitaria Sanguinalis (DIGSA); experiment: as above; assay type: in vivo; settings: mesotrione 45 g/ha + adjuvant 0.2% v/v in spray-tank, mean (standard deviation), 3 replicates
[9] = system: Polygonum Convolvulus (POLCO); experiment: as above; assay type: in vivo; settings: mesotrione 45 g/ha + adjuvant 0.2% v/v in spray-tank, mean (standard deviation), 3 replicates
[10] = Solubility of chlorothalonil in solvents at 20° C.; assay type: physicochemical
[11] = solvent in deionised water, 25° C., contact at least two weeks

CCCCOC(=O)/C=C/C(=O)OCCCC [(E)-But-2-enedioic acid dibutyl ester]
% water solubility [by weight at 25° C.] [1]: 0.04 % by weight | average percentage of weeds killed, ALOMY ([2]; 14 days after application): 20(17.3) % | average percentage of weeds killed, ALOMY ([2]; 21 days after application): 33.3(15.3) % | average percentage of weeds killed, AVEFA ([3]; 14 days after application): 20(10) % | average percentage of weeds killed, AVEFA ([3]; 21 days after application): 16.7(5.8) % | average percentage of weeds killed, LOLPE ([4]; 14 days after application): 13.3(5.8) % | average percentage of weeds killed, LOLPE ([4]; 21 days after application): 6.7(5.8) % | average percentage of weeds killed, SETVI ([5]; 14 days after application): 20(0) % | average percentage of weeds killed, SETVI ([5]; 21 days after application): 20(10) % | average percentage weed kill, AMATU ([6]; 14 days after application): 76.7(5.8) % | average percentage weed kill, AMATU ([6]; 21 days after application): 94(3.6) % | average percentage weed kill, BRADE ([7]; 14 days after application): 43.3(5.8) % | average percentage weed kill, BRADE ([7]; 21 days after application): 40(0) % | average percentage weed kill, DIGSA ([8]; 14 days after application): 36.7(2.9) % | average percentage weed kill, DIGSA ([8]; 21 days after application): 41.7(7.6) % | average percentage weed kill, POLCO ([9]; 14 days after application): 80(10) % | average percentage weed kill, POLCO ([9]; 21 days after application): 80(10) %

CC(=O)OCC(COC(C)=O)OC(C)=O [Triacetin (glycerol triacetate), glycerol triacetate]
% water solubility [by weight at 25° C.] [1]: 7.7 % by weight

OCc1ccccc1 [Benzyl alcohol, benzene methanol, Benzyl alcohol]
% water solubility [by weight at 25° C.] [1]: 4.4 % by weight

CCCCCCCCCCCCc1ccccc1 [Dodecylbenzene, 1-phenyldodecane]
% water solubility [by weight at 25° C.] [1]: 0.000026 % by weight

c1ccc2c(c1)CCCC2 [Tetralin, tetrahydronaphthalene]
% water solubility [by weight at 25° C.] [1, 11]: 0.18 % by weight

CCOC(=O)/C=C/C(=O)OCC [Diethyl fumarate]
% water solubility [by weight at 25° C.] [1]: 0.8 % by weight

dimethyl heptamide [Genagen ™ 4166 (dimethyl heptamide)]
% water solubility [by weight at 25° C.] [1, 11]: 0.7 % by weight

C1CCC2CCCCC2C1 (stereo not drawn) [Decalin, decahydronaphthalene]
% water solubility [by weight at 25° C.] [1, 11]: 0.7 % by weight

CC(=O)c1ccccc1 [Acetophenone (methyl phenyl ketone), methyl phenyl ketone]
% water solubility [by weight at 25° C.] [1]: 0.9 % by weight

C=C(C)[C@H]1CC=C(C)CC1 [Dipentene, limonene]
% water solubility [by weight at 25° C.] [1, 11]: 0.098 % by weight | Chlorothalonil solubility in the solvent [10]: 0.18 percentage w/w
